Laboratory results published in patent US11767310B2, “Nicotinamide RIPK1 inhibitors” (AbbVie Inc., priority 2021, dated 2023).
Read-outs that look alike come from different tables or passages of the source.

Columns and labels:
Assay in all cases: Kinase binding screen
Details in all cases: read-out: Percent Control at 100 nM Compound Concentration
PIP5K2B = PIP5K2B (Homo sapiens (Human), UniProt P78356)
[1] = molecular target: RPS6KA4(Kin.Dom.2-C-terminal) (Homo sapiens (Human), UniProt O75676)
FRK = FRK (Homo sapiens (Human), UniProt P42685)
CLK1 = CLK1 (Homo sapiens (Human), UniProt P49759)
EPHA6 = EPHA6 (Homo sapiens (Human), UniProt Q9UF33)
Sequence of EPHA6 (Q9UF33 23-1036): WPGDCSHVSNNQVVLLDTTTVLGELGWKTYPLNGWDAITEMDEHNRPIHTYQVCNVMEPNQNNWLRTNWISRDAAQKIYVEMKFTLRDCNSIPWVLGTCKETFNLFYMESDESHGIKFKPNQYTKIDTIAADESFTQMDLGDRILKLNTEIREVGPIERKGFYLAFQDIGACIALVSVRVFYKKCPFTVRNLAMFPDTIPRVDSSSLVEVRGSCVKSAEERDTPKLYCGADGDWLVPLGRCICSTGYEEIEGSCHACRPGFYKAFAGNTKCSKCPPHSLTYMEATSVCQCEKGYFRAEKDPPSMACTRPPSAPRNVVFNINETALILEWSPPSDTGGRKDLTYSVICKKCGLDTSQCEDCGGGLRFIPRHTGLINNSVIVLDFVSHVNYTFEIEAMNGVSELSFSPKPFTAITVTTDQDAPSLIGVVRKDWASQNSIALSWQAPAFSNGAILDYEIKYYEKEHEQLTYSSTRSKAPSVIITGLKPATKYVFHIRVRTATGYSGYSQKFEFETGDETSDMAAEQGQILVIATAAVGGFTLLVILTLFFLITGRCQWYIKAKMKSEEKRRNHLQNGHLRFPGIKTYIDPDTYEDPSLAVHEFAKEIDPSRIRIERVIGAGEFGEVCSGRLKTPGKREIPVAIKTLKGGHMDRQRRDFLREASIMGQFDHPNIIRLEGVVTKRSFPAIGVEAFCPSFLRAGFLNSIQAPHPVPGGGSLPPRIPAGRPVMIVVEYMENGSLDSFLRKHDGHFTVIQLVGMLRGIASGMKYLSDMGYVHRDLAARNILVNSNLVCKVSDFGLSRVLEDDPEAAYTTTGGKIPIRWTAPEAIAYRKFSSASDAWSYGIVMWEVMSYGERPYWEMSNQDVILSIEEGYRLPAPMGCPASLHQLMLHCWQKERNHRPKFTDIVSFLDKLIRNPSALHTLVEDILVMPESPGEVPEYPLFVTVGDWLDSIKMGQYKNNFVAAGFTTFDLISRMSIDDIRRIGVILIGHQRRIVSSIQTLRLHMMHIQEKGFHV

EGFR(G719C) = EGFR(G719C) (Homo sapiens (Human), UniProt P00533, G719C)
MARK2 = MARK2 (Homo sapiens (Human), UniProt Q7KZI7)
CDK3 = CDK3 (Homo sapiens (Human), UniProt Q00526)
MY03A = MY03A (Homo sapiens (Human), UniProt Q8NEV4)
Sequence of MY03A (Q8NEV4 whole entry): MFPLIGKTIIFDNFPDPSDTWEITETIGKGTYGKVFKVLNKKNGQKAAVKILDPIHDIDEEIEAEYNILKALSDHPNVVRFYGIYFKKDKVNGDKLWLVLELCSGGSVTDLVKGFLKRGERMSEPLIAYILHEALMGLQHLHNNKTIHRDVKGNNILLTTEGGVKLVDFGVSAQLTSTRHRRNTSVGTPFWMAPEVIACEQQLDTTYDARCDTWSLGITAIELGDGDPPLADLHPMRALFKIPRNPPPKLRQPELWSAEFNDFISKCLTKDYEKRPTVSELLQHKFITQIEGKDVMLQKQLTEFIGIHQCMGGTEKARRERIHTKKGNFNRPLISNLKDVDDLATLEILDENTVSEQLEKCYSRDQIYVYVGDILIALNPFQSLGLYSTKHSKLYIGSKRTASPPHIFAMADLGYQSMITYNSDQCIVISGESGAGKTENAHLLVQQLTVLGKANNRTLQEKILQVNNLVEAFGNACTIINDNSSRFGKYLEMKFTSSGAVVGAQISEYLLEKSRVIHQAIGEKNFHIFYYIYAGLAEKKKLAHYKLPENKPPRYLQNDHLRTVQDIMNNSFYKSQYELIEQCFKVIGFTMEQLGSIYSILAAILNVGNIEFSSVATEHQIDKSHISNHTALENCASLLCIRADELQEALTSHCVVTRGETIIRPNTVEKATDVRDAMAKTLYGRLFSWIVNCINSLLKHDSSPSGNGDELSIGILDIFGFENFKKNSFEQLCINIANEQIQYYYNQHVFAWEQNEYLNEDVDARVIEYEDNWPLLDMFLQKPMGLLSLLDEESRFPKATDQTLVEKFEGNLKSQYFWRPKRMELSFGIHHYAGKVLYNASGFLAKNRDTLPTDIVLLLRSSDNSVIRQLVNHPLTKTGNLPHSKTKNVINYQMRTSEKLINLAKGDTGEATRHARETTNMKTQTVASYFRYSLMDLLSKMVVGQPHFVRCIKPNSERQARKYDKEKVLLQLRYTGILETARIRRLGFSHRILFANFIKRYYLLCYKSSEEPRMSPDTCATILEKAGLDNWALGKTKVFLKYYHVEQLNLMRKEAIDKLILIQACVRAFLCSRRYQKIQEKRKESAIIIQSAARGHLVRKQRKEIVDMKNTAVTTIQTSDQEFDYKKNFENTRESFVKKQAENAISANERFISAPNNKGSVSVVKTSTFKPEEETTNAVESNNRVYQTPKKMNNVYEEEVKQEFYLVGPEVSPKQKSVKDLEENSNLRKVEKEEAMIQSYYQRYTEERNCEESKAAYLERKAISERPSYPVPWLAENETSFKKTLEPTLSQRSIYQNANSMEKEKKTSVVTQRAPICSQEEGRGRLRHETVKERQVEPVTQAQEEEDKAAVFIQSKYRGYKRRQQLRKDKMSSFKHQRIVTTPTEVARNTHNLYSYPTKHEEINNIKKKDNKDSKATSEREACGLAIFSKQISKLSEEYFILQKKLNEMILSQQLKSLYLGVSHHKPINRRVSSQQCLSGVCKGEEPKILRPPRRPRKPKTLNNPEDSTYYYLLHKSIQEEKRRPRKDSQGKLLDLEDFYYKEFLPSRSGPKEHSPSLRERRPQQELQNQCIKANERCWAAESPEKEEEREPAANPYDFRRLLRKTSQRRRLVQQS

RET(V804M) = RET(V804M) (Homo sapiens (Human), UniProt P07949, V804M)
EPHB3 = EPHB3 (Homo sapiens (Human), UniProt P54753)
CLK2 = CLK2 (Homo sapiens (Human), UniProt P49760)
Sequence of CLK2 (P49760 whole entry): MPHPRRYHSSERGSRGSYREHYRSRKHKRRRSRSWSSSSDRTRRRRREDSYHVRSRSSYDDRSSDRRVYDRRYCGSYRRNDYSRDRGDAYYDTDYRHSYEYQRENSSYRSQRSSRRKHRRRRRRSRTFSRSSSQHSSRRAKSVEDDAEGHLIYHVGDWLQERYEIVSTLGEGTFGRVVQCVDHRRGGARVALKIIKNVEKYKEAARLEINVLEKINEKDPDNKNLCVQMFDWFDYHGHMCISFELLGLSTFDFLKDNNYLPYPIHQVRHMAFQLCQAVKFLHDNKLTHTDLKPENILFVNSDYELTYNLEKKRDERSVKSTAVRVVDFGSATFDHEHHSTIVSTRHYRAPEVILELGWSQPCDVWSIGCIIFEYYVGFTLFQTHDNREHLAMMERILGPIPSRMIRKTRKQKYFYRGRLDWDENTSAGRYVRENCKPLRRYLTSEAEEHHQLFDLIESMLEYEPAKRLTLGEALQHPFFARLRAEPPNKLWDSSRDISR

EPHB6 = EPHB6 (Homo sapiens (Human), UniProt O15197)
Sequence of EPHB6 (O15197 32-1021): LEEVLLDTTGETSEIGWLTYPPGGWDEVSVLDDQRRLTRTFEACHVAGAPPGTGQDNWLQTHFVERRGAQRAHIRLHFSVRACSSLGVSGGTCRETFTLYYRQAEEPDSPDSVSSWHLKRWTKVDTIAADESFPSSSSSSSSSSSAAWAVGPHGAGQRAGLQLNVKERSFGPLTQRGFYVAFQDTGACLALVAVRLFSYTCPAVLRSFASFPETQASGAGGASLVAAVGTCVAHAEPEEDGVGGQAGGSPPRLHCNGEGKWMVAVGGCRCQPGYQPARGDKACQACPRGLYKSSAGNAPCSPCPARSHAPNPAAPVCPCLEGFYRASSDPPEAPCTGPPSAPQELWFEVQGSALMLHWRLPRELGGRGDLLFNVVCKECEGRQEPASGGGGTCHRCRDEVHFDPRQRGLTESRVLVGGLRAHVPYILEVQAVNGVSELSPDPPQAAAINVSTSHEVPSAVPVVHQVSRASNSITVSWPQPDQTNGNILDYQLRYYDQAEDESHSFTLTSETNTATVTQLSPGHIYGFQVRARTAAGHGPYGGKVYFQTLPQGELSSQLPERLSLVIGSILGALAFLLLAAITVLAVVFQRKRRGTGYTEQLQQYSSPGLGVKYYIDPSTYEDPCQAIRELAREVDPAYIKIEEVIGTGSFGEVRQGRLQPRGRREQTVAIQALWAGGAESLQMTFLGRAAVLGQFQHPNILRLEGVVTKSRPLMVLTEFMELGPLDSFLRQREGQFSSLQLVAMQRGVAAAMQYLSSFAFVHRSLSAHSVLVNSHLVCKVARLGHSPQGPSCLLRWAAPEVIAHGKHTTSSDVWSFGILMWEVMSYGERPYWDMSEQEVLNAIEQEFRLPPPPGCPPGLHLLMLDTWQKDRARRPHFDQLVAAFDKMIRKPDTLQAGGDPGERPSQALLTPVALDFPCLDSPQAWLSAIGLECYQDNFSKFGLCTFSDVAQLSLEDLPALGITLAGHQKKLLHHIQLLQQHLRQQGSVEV

RIOK2 = RIOK2 (Homo sapiens (Human), UniProt Q9BVS4)
TAOK3 = TAOK3 (Homo sapiens (Human), UniProt Q9H2K8)
RIOK1 = RIOK1 (Homo sapiens (Human), UniProt Q9BRS2)
CSF1R-autoinhibited = CSF1R-autoinhibited (Homo sapiens (Human), UniProt P07333)
NEK5 = NEK5 (Homo sapiens (Human), UniProt Q6P3R8)
EGFR(E746-A750del) = EGFR(E746-A750del) (Homo sapiens (Human), UniProt P00533, DEL746-750)
PKAC-beta = PKAC-beta (Homo sapiens (Human), UniProt P22694)
MERTK = MERTK (Homo sapiens (Human), UniProt Q12866)
YES = YES (Homo sapiens (Human), UniProt P07947)
ACVRL1 = ACVRL1 (Homo sapiens (Human), UniProt P37023)
Sequence of ACVRL1 (P37023 22-503): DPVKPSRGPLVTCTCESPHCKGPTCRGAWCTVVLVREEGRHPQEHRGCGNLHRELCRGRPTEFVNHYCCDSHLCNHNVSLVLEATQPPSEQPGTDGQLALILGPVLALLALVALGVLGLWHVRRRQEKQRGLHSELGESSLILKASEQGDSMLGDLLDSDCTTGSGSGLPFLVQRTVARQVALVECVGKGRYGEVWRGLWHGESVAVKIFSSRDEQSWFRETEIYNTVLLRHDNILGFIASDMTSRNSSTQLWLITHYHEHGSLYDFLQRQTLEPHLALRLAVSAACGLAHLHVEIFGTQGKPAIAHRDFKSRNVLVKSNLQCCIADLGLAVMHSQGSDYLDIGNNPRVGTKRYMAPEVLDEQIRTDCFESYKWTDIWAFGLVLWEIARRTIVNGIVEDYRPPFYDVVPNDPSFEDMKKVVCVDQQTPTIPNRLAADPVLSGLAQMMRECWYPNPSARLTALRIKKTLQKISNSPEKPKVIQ

MLK2 = MLK2 (Homo sapiens (Human), UniProt Q02779)
CAMK1D = CAMK1D (Homo sapiens (Human), UniProt Q8IU85)
PIP5K2C = PIP5K2C (Homo sapiens (Human), UniProt Q8TBX8)
Sequence of PIP5K2C (Q8TBX8 whole entry): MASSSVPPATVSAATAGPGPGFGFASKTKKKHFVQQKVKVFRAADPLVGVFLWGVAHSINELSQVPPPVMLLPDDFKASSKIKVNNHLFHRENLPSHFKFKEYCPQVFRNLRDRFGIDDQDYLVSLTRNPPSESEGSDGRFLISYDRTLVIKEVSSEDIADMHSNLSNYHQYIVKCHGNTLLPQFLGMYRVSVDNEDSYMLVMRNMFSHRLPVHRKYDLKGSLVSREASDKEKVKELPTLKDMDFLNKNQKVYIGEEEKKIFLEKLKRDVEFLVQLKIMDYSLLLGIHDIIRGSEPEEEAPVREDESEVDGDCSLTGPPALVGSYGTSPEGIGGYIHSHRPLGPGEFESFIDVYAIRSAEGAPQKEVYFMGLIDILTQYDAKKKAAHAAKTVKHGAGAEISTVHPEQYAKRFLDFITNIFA

MEK5 = MEK5 (Homo sapiens (Human), UniProt Q13163)
PIP5K1A = PIP5K1A (Homo sapiens (Human), UniProt Q99755)
NDR2 = NDR2 (Homo sapiens (Human), UniProt Q9Y2H1)

## CN(C[C@@H](O)Cc1ccccc1)C(=O)c1cncc(C#Cc2cnn(C(F)F)c2)c1 [Example 2, (S)-5-((1-(difluoromethyl)-1H-pyrazol-4-yl)ethynyl)-N-(2-hydroxy-3-phenylpropyl)-N-methylnicotinamide]
PIP5K2B; PIP5K2B
  remaining activity at 0.1 µM: 100%
[1]; RPS6KA4(Kin.Dom.2-C-terminal)
  remaining activity at 0.1 µM: 97%
FRK; FRK
  remaining activity at 0.1 µM: 100%
CLK1; CLK1
  remaining activity at 0.1 µM: 100%
EPHA6; EPHA6
  remaining activity at 0.1 µM: 100%
EGFR(G719C); EGFR(G719C)
  remaining activity at 0.1 µM: 100%
MARK2; MARK2
  remaining activity at 0.1 µM: 96%
CDK3; CDK3
  remaining activity at 0.1 µM: 100%
MY03A; MY03A
  remaining activity at 0.1 µM: 99%
RET(V804M); RET(V804M)
  remaining activity at 0.1 µM: 100%
EPHB3; EPHB3
  remaining activity at 0.1 µM: 100%
CLK2; CLK2
  remaining activity at 0.1 µM: 95%
EPHB6; EPHB6
  remaining activity at 0.1 µM: 100%
RIOK2; RIOK2
  remaining activity at 0.1 µM: 95%
TAOK3; TAOK3
  remaining activity at 0.1 µM: 92%
RIOK1; RIOK1
  remaining activity at 0.1 µM: 100%
CSF1R-autoinhibited; CSF1R-autoinhibited
  remaining activity at 0.1 µM: 99%
NEK5; NEK5
  remaining activity at 0.1 µM: 100%
EGFR(E746-A750del); EGFR(E746-A750del)
  remaining activity at 0.1 µM: 100%
PKAC-beta; PKAC-beta
  remaining activity at 0.1 µM: 92%
MERTK; MERTK
  remaining activity at 0.1 µM: 100%
YES; YES
  remaining activity at 0.1 µM: 100%
ACVRL1; ACVRL1
  remaining activity at 0.1 µM: 100%
MLK2; MLK2
  remaining activity at 0.1 µM: 66%
CAMK1D; CAMK1D
  remaining activity at 0.1 µM: 100%
PIP5K2C; PIP5K2C
  remaining activity at 0.1 µM: 63%
MEK5; MEK5
  remaining activity at 0.1 µM: 89%
PIP5K1A; PIP5K1A
  remaining activity at 0.1 µM: 100%
NDR2; NDR2
  remaining activity at 0.1 µM: 94%

## CN(C[C@H](Cc1ccccc1)OP(=O)(O)O)C(=O)c1cncc(C#Cc2cnn(C(F)F)c2)c1 [Example 19, (S)-1-(5-((1-(difluoromethyl)-1H-pyrazol-4-yl)ethynyl)-N-methylnicotinamido)-3-phenylpropan-2-yl dihydrogen phosphate]
PIP5K2B
  remaining activity at 0.1 µM: 95%
[1]
  remaining activity at 0.1 µM: 100%
FRK
  remaining activity at 0.1 µM: 100%
CLK1
  remaining activity at 0.1 µM: 100%
EPHA6
  remaining activity at 0.1 µM: 100%
EGFR(G719C)
  remaining activity at 0.1 µM: 77%
MARK2
  remaining activity at 0.1 µM: 100%
CDK3
  remaining activity at 0.1 µM: 100%
MY03A
  remaining activity at 0.1 µM: 93%
RET(V804M)
  remaining activity at 0.1 µM: 100%
EPHB3
  remaining activity at 0.1 µM: 100%
CLK2
  remaining activity at 0.1 µM: 100%
EPHB6
  remaining activity at 0.1 µM: 100%
RIOK2
  remaining activity at 0.1 µM: 95%
TAOK3
  remaining activity at 0.1 µM: 85%
RIOK1
  remaining activity at 0.1 µM: 100%
CSF1R-autoinhibited
  remaining activity at 0.1 µM: 99%
NEK5
  remaining activity at 0.1 µM: 94%
EGFR(E746-A750del)
  remaining activity at 0.1 µM: 94%
PKAC-beta
  remaining activity at 0.1 µM: 100%
MERTK
  remaining activity at 0.1 µM: 100%
YES
  remaining activity at 0.1 µM: 100%
ACVRL1
  remaining activity at 0.1 µM: 100%
MLK2
  remaining activity at 0.1 µM: 69%
CAMK1D
  remaining activity at 0.1 µM: 74%
PIP5K2C
  remaining activity at 0.1 µM: 74%
MEK5
  remaining activity at 0.1 µM: 87%
PIP5K1A
  remaining activity at 0.1 µM: 92%
NDR2
  remaining activity at 0.1 µM: 84%
